System: KMO
Test: KMO activity assay: L-Kynurenine hydroxylation to 3-Hydroxy-Kynurenine, quantified by LC/MS
Assay type: biochemical
Details: compound at 10 uM; footnote: some portion of activity of amides may be due to contribution of acid precursor
Procedure, shortened: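 Enzyme: KMO from mitochondria isolated from CHO cells expressing GST-His-KMO, with L-kynurenine as substrate (stock 10 mM in 100 mM potassium phosphate, pH 7.4). Conversion to 3-hydroxy-kynurenine quantified by LC/MS multiple reaction monitoring; compound stocks 10 mM in DMSO.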

| SMILES | % Inhibition at 10 uM [%] |
| --- | --- |
| O=S(=O)(Nc1cc(-c2ccc(F)c(Cl)c2)ncn1)c1ccccc1 [N-[6-(3-Chloro-4-fluoro-phenyl)-pyrimidin-4-yl]-benzenesulfonamide] | 98 |
| O=C(NS(=O)(=O)c1ccccc1)c1cc(-c2cccc(Cl)c2)ncn1 [N-[6-(3-Chloro-phenyl)-pyrimidine-4-carbonyl]-benzenesulfonamide] | 100.67 |
| CS(=O)(=O)NC(=O)c1cc(-c2cccc(Cl)c2)ncn1 [N-[6-(3-Chloro-phenyl)-pyrimidine-4-carbonyl]-methanesulfonamide] | 101.58 |
| O=S(=O)(Nc1cc(-c2ccc(F)c(Cl)c2)ncn1)c1ccccc1F [N-[6-(3-chloro-4-fluorophenyl)pyrimidin-4-yl]-2-fluorobenzene-1-sulfonamide] | 100 |
| CC(=O)N[C@@H]1CCN(C(=O)c2cc(-c3ccc(Cl)c(Cl)c3)ncn2)C1 [N-{(R)-1-[6-(3,4-Dichloro-phenyl)-pyrimidine-4-carbonyl]-pyrrolidin-3-yl}-acetamide] | 98.55 |
| CN(C)CCC(=O)N[C@H]1CCN(C(=O)c2cc(-c3ccc(Cl)c(Cl)c3)ncn2)C1 [N-{(S)-1-[6-(3,4-Dichloro-phenyl)-pyrimidine-4-carbonyl]-pyrrolidin-3-yl}-3-dimethylamino-propionamide] | 91.785 |
| CC(=O)N[C@H]1CCN(C(=O)c2cc(-c3ccc(Cl)c(Cl)c3)ncn2)C1 [N-{(S)-1-[6-(3,4-Dichloro-phenyl)-pyrimidine-4-carbonyl]-pyrrolidin-3-yl}-acetamide] | 100.27 |
| CN1CCN(C(=O)c2cc(-c3ccc(Cl)c(Cl)c3)ncn2)CC1 [[6-(3,4-Dichloro-phenyl)-pyrimidin-4-yl]-(4-methyl-piperazin-1-yl)-methanone] | 94.86 |
| O=C(c1cc(-c2ccc(Cl)c(Cl)c2)ncn1)N1CCc2ccc(F)cc21 [[6-(3,4-Dichloro-phenyl)-pyrimidin-4-yl]-(6-fluoro-2,3-dihydro-indol-1-yl)-methanone] | 100.71 |
| C[C@@H]1CN(C(=O)c2cc(-c3ccc(Cl)c(Cl)c3)ncn2)C[C@H](C)N1.O=C(O)C(F)(F)F [[6-(3,4-Dichloro-phenyl)-pyrimidin-4-yl]-((3S,5R)-3,5-dimethyl-piperazin-1-yl)-methanone, trifluoro-acetic acid salt] | 95.92 |
| O=C(c1cc(-c2ccc(Cl)c(Cl)c2)ncn1)N1CCC[C@@H](O)C1 [[6-(3,4-Dichloro-phenyl)-pyrimidin-4-yl]-((R)-3-hydroxy-piperidin-1-yl)-methanone] | 99.86 |
| O=C(c1cc(-c2ccc(Cl)c(Cl)c2)ncn1)N1CC[C@@H](O)C1 [[6-(3,4-Dichloro-phenyl)-pyrimidin-4-yl]-((R)-3-hydroxy-pyrrolidin-1-yl)-methanone] | 101.49 |
| O=C(c1cc(-c2ccc(Cl)c(Cl)c2)ncn1)N1CCC[C@H](O)C1 [[6-(3,4-Dichloro-phenyl)-pyrimidin-4-yl]-((S)-3-hydroxy-piperidin-1-yl)-methanone] | 99.98 |
| O=C(c1cc(-c2ccc(Cl)c(Cl)c2)ncn1)N1CCC(C(=O)N2CCOCC2)C1 (stereo not drawn) [[6-(3,4-Dichloro-phenyl)-pyrimidin-4-yl]-[3-(morpholine-4-carbonyl)-pyrrolidin-1-yl]-methanone] | 90.83 |
| O=C(c1cc(-c2ccc(Cl)c(Cl)c2)ncn1)N1CCN(C(=O)N2CCOCC2)CC1 [[6-(3,4-Dichloro-phenyl)-pyrimidin-4-yl]-[4-(morpholine-4-carbonyl)-piperazin-1-yl]-methanone] | 40.38 |
| O=C(c1cc(-c2ccc(Cl)c(Cl)c2)ncn1)N1CCNCC1 [[6-(3,4-dichloro-phenyl)-pyrimidin-4-yl]-piperazin-1-yl-methanone] | 71.34 |
| CCCCOC(=O)c1cc(-c2ccc(Cl)c(Cl)c2)ncn1 [butyl 6-(3,4-dichlorophenyl)pyrimidine-4-carboxylate] | 100 |
| CC(C)OC(=O)c1cc(-c2ccc(Cl)c(Cl)c2)ncn1 [propan-2-yl 6-(3,4-dichlorophenyl)pyrimidine-4-carboxylate] | 100 |

Reference: patent US9428464B2, “Kynurenine-3-monooxygenase inhibitors, pharmaceutical compositions, and methods of use thereof” (CHDI Foundation, Inc., priority 2011, dated 2016)
